Measured values from US6458978B1, “Fluorous phosphines and process for their preparation” (Atofina Vlissingen B.V., priority 1998, dated 2002).

Experiments:
[1] = Determination of partition coefficients of phosphines in fluorous biphasic systems (ICP-AAS on phosphorus); format: physicochemical; settings: 0° C., 1:1 mixture (v/v)
Description: For applications in fluorous bi-phasic catalysis and for catalyst recycling by fluorous phase extraction techniques an important feature of the fluorous aryl phosphines and the derived catalytic complexes is the partition coefficient P(P=Cfluorous phase/Corganic phase. C=concentration) in fluorous bi-phasic systems.
11. Determination of Partition Coefficients
The partition coefficients were determinded by dissolving a known amount of phosphine (typically between 11 and 60 μmol) in a fluorous biphasic system either consisting of c-C6F11CF3 (2.000±0.002 mL) and n-pentane, n-octane or toluene (2.006±0.002 mL). The resulting mixture was stirred at 25° C. until all solid had dissolved and equilibrated in a water ice bath (1 h). An aliquot (0.500±0.002 mL) was removed from each layer by syringe. Analysis by ICP-AAS on phosphorus gave the amount of phosphine present, with an accuracy of ±0.3 ppm. A conservative estimate of the experimental error in the partition coefficient is ±1 in the last digit.

[2] = Solubility of dppe and dppe derivatives G{m,x} in perfluorinated and non-fluorinated solvents; format: physicochemical; settings: for solubility at room temperature, FC-72: FC-72: mixture of perfluorinated hexanes
[3] = Hydrogenation of 1-octene under single phase conditions in α,α,α-trifluorotoluene
Method: To be able to directly compare the activities of fluorous derivatives H{1,6} and H{1,8} with non-fluorous [P(C6H4-4-SiMe3)3]3RhCl (H{0}) and the conventional Wilkinson catalyst (PPh3)3RhCl, homogeneous hydrogenation of 1-octene were carried out under single phase conditions in the hybrid solvent α,α,α-trifluorotoluene at atmospheric H2 pressures. Highest rates of hydrogen uptake (14.2 mol.L^−1.h^−1) were measured for 1c at relatively high rhodium and olefine concentrations (entry 2, Table 7). Under these conditions a zero-order dependence in [1-octene] was found up to ca 80% conversion resulting in a linear conversion versus time plot. In all other experiments ([Rh]=4.0-8.0 mM, [1-octene]0=1.46 M) rates of hydrogen uptake were lower (<11 mol.L^−1.h^−1) and conversion versus time plots corresponded to a rate law -d[1-octene]/dt=kobs.[1-octene] for >98% conversion allowing to evaluate catalyst activity in terms of the observed first order rate constant kobs. Since for these experiments the rates of dihydrogen uptake were well below the maximum value obtained in entry 2, diffusion limitation of H2 can be excluded. In addition to kobs, turn over frequencies (TOF in mol.mol^−1.h^−1) were derived from the tangent of a 4^thorder polynomal fit to conversion versus time plots at 25% conversion and serve as a measure of catalyst activity independent of any assumed kinetic relationship with substrate.
Catalytic reactions were carried out under single phase conditions in CF3C6H5 at 80° C. under 1 bar of hydrogen pressure. After >90% conversion (monitored by the H2 uptake) volatiles were distilled off and analyzed by GC. Activities (TOF) were determined for 25% conversion.

[4] = [Rh] 4.0 mM, [1-octene] 1.46 M, T = 80° C., p(H2) = 1 bar, α,α,α-trifluorotoluene
[5] = [Rh] 8.0 mM, [1-octene] 2.92 M, T = 80° C., p(H2) = 1 bar, α,α,α-trifluorotoluene

Compound	Fluorous partition coefficient P = cfluorous phase/corganic phase, toluene/c-C6F11CF3 [1]	Fluorous partition coefficient P = cfluorous phase/corganic phase, n-octane/c-C6F11CF3 [1]	Fluorous partition coefficient P = cfluorous phase/corganic phase, n-pentane/c-C6F11CF3 [1]	solubility at room temperature, THF [2]	solubility at room temperature, FC-72 [2]	also measured
C[Si](C)(C)c1ccc(P(c2ccc([Si](C)(C)C)cc2)c2ccc([Si](C)(C)C)cc2)cc1 [D{0}, P(C6H4SiMe3-4)3, reference compound]	0.007					
C[Si](C)(CCC(F)(F)C(F)(F)C(F)(F)C(F)(F)C(F)(F)C(F)(F)F)c1ccc(P(c2ccc([Si](C)(C)CCC(F)(F)C(F)(F)C(F)(F)C(F)(F)C(F)(F)C(F)(F)F)cc2)c2ccc([Si](C)(C)CCC(F)(F)C(F)(F)C(F)(F)C(F)(F)C(F)(F)C(F)(F)F)cc2)cc1 [D{1,6}]	0.13	0.42	0.53			
C[Si](C)(CCC(F)(F)C(F)(F)C(F)(F)C(F)(F)C(F)(F)C(F)(F)C(F)(F)C(F)(F)F)c1ccc(P(c2ccc([Si](C)(C)CCC(F)(F)C(F)(F)C(F)(F)C(F)(F)C(F)(F)C(F)(F)C(F)(F)C(F)(F)F)cc2)c2ccc([Si](C)(C)CCC(F)(F)C(F)(F)C(F)(F)C(F)(F)C(F)(F)C(F)(F)C(F)(F)C(F)(F)F)cc2)cc1 [D{1,8}]	1.06	1.4	0.78			
C[Si](CCC(F)(F)C(F)(F)C(F)(F)C(F)(F)C(F)(F)C(F)(F)F)(CCC(F)(F)C(F)(F)C(F)(F)C(F)(F)C(F)(F)C(F)(F)F)c1ccc(P(c2ccc([Si](C)(CCC(F)(F)C(F)(F)C(F)(F)C(F)(F)C(F)(F)C(F)(F)F)CCC(F)(F)C(F)(F)C(F)(F)C(F)(F)C(F)(F)C(F)(F)F)cc2)c2ccc([Si](C)(CCC(F)(F)C(F)(F)C(F)(F)C(F)(F)C(F)(F)C(F)(F)F)CCC(F)(F)C(F)(F)C(F)(F)C(F)(F)C(F)(F)C(F)(F)F)cc2)cc1 [D{2,6}, P[C6H4Si(CH2CH2C6F13)2Me-4]3]	3.8	6.6	2.0			
C[Si](CCC(F)(F)C(F)(F)C(F)(F)C(F)(F)C(F)(F)C(F)(F)C(F)(F)C(F)(F)F)(CCC(F)(F)C(F)(F)C(F)(F)C(F)(F)C(F)(F)C(F)(F)C(F)(F)C(F)(F)F)c1ccc(P(c2ccc([Si](C)(CCC(F)(F)C(F)(F)C(F)(F)C(F)(F)C(F)(F)C(F)(F)C(F)(F)C(F)(F)F)CCC(F)(F)C(F)(F)C(F)(F)C(F)(F)C(F)(F)C(F)(F)C(F)(F)C(F)(F)F)cc2)c2ccc([Si](C)(CCC(F)(F)C(F)(F)C(F)(F)C(F)(F)C(F)(F)C(F)(F)C(F)(F)C(F)(F)F)CCC(F)(F)C(F)(F)C(F)(F)C(F)(F)C(F)(F)C(F)(F)C(F)(F)C(F)(F)F)cc2)cc1 [D{2,8}]	3.8	11	3.3			
FC(F)(F)C(F)(F)C(F)(F)C(F)(F)C(F)(F)C(F)(F)CC[Si](CCC(F)(F)C(F)(F)C(F)(F)C(F)(F)C(F)(F)C(F)(F)F)(CCC(F)(F)C(F)(F)C(F)(F)C(F)(F)C(F)(F)C(F)(F)F)c1ccc(P(c2ccc([Si](CCC(F)(F)C(F)(F)C(F)(F)C(F)(F)C(F)(F)C(F)(F)F)(CCC(F)(F)C(F)(F)C(F)(F)C(F)(F)C(F)(F)C(F)(F)F)CCC(F)(F)C(F)(F)C(F)(F)C(F)(F)C(F)(F)C(F)(F)F)cc2)c2ccc([Si](CCC(F)(F)C(F)(F)C(F)(F)C(F)(F)C(F)(F)C(F)(F)F)(CCC(F)(F)C(F)(F)C(F)(F)C(F)(F)C(F)(F)C(F)(F)F)CCC(F)(F)C(F)(F)C(F)(F)C(F)(F)C(F)(F)C(F)(F)F)cc2)cc1 [D{3,6}]	2.1	3.7	5.3			
FC(F)(F)C(F)(F)C(F)(F)C(F)(F)C(F)(F)C(F)(F)C(F)(F)C(F)(F)CC[Si](CCC(F)(F)C(F)(F)C(F)(F)C(F)(F)C(F)(F)C(F)(F)C(F)(F)C(F)(F)F)(CCC(F)(F)C(F)(F)C(F)(F)C(F)(F)C(F)(F)C(F)(F)C(F)(F)C(F)(F)F)c1ccc(P(c2ccc([Si](CCC(F)(F)C(F)(F)C(F)(F)C(F)(F)C(F)(F)C(F)(F)C(F)(F)C(F)(F)F)(CCC(F)(F)C(F)(F)C(F)(F)C(F)(F)C(F)(F)C(F)(F)C(F)(F)C(F)(F)F)CCC(F)(F)C(F)(F)C(F)(F)C(F)(F)C(F)(F)C(F)(F)C(F)(F)C(F)(F)F)cc2)c2ccc([Si](CCC(F)(F)C(F)(F)C(F)(F)C(F)(F)C(F)(F)C(F)(F)C(F)(F)C(F)(F)F)(CCC(F)(F)C(F)(F)C(F)(F)C(F)(F)C(F)(F)C(F)(F)C(F)(F)C(F)(F)F)CCC(F)(F)C(F)(F)C(F)(F)C(F)(F)C(F)(F)C(F)(F)C(F)(F)C(F)(F)F)cc2)cc1 [D{3,8}]	1.0	4.8	7.0			
C[Si](C)(C)c1ccc([PH](c2ccc([Si](C)(C)C)cc2)(c2ccc([Si](C)(C)C)cc2)[Rh]([Cl])([PH](c2ccc([Si](C)(C)C)cc2)(c2ccc([Si](C)(C)C)cc2)c2ccc([Si](C)(C)C)cc2)[PH](c2ccc([Si](C)(C)C)cc2)(c2ccc([Si](C)(C)C)cc2)c2ccc([Si](C)(C)C)cc2)cc1 [H{0}, [P(C6H4-4-SiMe3)3]3RhCl]						TOF(25%), turn over frequency at 25% conversion [3, 4]: 1610 h⁻¹; TON (mole of olefin/mole of Rh) [3, 4]: 336; conversion [3, 4]: 92%; kobs (first order rate constant) [3, 4]: 7.5(2) h^−1; TOF(25%), turn over frequency at 25% conversion [3, 5]: 1910 h⁻¹; TON (mole of olefin/mole of Rh) [3, 5]: 361; conversion [3, 5]: 99%; kobs (zero order in olefin up to 80% conversion) [3, 5]: ^eZero order in olefin up to 80% conversion, kobs = 14.2(1) mol.L^−1.h^−1.; activity relative to Wilkinson's catalyst ([3]; derived from Table 7): > 1.5 times; Highest rate of hydrogen uptake ([3]; relatively high rhodium and olefine concentrations (entry 2, Table 7)): 14.2 mol/L/h

Second part, led by results:

Fluorous partition coefficient P = cfluorous phase/corganic phase, toluene/c-C6F11CF3 [1]	Fluorous partition coefficient P = cfluorous phase/corganic phase, n-octane/c-C6F11CF3 [1]	Fluorous partition coefficient P = cfluorous phase/corganic phase, n-pentane/c-C6F11CF3 [1]	solubility at room temperature, THF [2]	solubility at room temperature, FC-72 [2]	Compound	also measured
			+ (+: >0.1 g/ml)	− (−: <0.01 g/ml)	C[Si](C)(C)c1ccc(P(CCP(c2ccc([Si](C)(C)C)cc2)c2ccc([Si](C)(C)C)cc2)c2ccc([Si](C)(C)C)cc2)cc1 [G{0}, (Me3SiC6H4-4)2PCH2CH2P(C6H4SiMe3-4)2, reference compound]	
			+ (+: >0.1 g/ml)	− (−: <0.01 g/ml)	C[Si](C)(CCC(F)(F)C(F)(F)C(F)(F)C(F)(F)C(F)(F)C(F)(F)F)c1ccc(P(CCP(c2ccc([Si](C)(C)CCC(F)(F)C(F)(F)C(F)(F)C(F)(F)C(F)(F)C(F)(F)F)cc2)c2ccc([Si](C)(C)CCC(F)(F)C(F)(F)C(F)(F)C(F)(F)C(F)(F)C(F)(F)F)cc2)c2ccc([Si](C)(C)CCC(F)(F)C(F)(F)C(F)(F)C(F)(F)C(F)(F)C(F)(F)F)cc2)cc1 [G{1,6}]	solubility at room temperature, toluene [2]: + (+: >0.1 g/ml)
			− (−: <0.01 g/ml)	− (−: <0.01 g/ml)	C[Si](C)(CCC(F)(F)C(F)(F)C(F)(F)C(F)(F)C(F)(F)C(F)(F)C(F)(F)C(F)(F)F)c1ccc(P(CCP(c2ccc([Si](C)(C)CCC(F)(F)C(F)(F)C(F)(F)C(F)(F)C(F)(F)C(F)(F)C(F)(F)C(F)(F)F)cc2)c2ccc([Si](C)(C)CCC(F)(F)C(F)(F)C(F)(F)C(F)(F)C(F)(F)C(F)(F)C(F)(F)C(F)(F)F)cc2)c2ccc([Si](C)(C)CCC(F)(F)C(F)(F)C(F)(F)C(F)(F)C(F)(F)C(F)(F)C(F)(F)C(F)(F)F)cc2)cc1 [G{1,8}]	solubility at room temperature, toluene [2]: − (−: <0.01 g/ml)
			+ (+: >0.1 g/ml)	+ (+: >0.1 g/ml)	C[Si](CCC(F)(F)C(F)(F)C(F)(F)C(F)(F)C(F)(F)C(F)(F)F)(CCC(F)(F)C(F)(F)C(F)(F)C(F)(F)C(F)(F)C(F)(F)F)c1ccc(P(CCP(c2ccc([Si](C)(CCC(F)(F)C(F)(F)C(F)(F)C(F)(F)C(F)(F)C(F)(F)F)CCC(F)(F)C(F)(F)C(F)(F)C(F)(F)C(F)(F)C(F)(F)F)cc2)c2ccc([Si](C)(CCC(F)(F)C(F)(F)C(F)(F)C(F)(F)C(F)(F)C(F)(F)F)CCC(F)(F)C(F)(F)C(F)(F)C(F)(F)C(F)(F)C(F)(F)F)cc2)c2ccc([Si](C)(CCC(F)(F)C(F)(F)C(F)(F)C(F)(F)C(F)(F)C(F)(F)F)CCC(F)(F)C(F)(F)C(F)(F)C(F)(F)C(F)(F)C(F)(F)F)cc2)cc1 [G{2,6}]	
